Measured values reported in publication PMC4344207 (PLoS ONE, 2015).
Read-outs that look alike come from different tables or passages of the source.

Key:
[1] = test system: exendin-4 degradation in rat kidney homogenate; test: Inhibition of exendin-4 metabolism by protease inhibitors in rat kidney homogenate; format: biochemical
[2] = test system: exendin-4 degradation in rat liver homogenate; test: Inhibition of exendin-4 metabolism by protease inhibitors in rat liver homogenate; format: biochemical
[3] = humans, biologically active GLP-1; cited from earlier work
Source text: (§1) In 2003, the International Diabetes Federation (IDF) estimated that almost 200 million people around the world had diabetes mellitus (DM). Approximately 90–95% of people with DM have type 2 diabetes mellitus (T2DM), which is characterized by hyperglycemia, insulin resistance, absolute or relative insulin deficiency, hyperglucagonemia, and increased hepatic glucose production. An optimal therapy for controlling the circulating glucose levels has not been established, and many currently available therapies are associated with unfavorable side effects, which limit their use. […] Although naturally resist ...

[4] = test system: plasma dipeptidyl peptidase-IV (DPP-IV); settings: circulating GLP-1, rat and human plasma DPP-IV; cited from earlier work
Source text: as §1

Q: Which “percentage inhibition of exendin-4 degradation, kidney” value (“percentage inhibition … kidney” for short) [1] does the source give for `O=S(=O)(F)Cc1ccccc1` [PMSF, phenylmethylsulfonyl fluoride] here?
A: The value was 18%.

Q: And the “percentage inhibition of exendin-4 degradation, liver” value (from here on “percentage inhibition … liver”) [2]?
A: The value was 65%.

Q: For glucagon-like peptide 1 [GLP-1], which apparent serum half-life [3] is on record?
A: Its apparent serum half-life is 1 to 2 min.

Q: And the “cleavage by rat and human plasma DPP-IV” value [4]?
A: The value was “rapid proteolytic cleavage”.

Q: With `c1cnc2c(c1)ccc1cccnc12` [1,10-phenanthroline] as the molecule, how does the “percentage inhibition … kidney” value [1] read?
A: Its value is > 77%.

Q: What about the “percentage inhibition … liver” value [2] of the same molecule?
A: Its value is > 77%.

Q: Which “percentage inhibition … kidney” value ([1]; rat kidney homogenate, inhibitor pre-incubated 10 min at 37°C, then exendin-4 10 μM for 30 min, NEM 10 mM, phenanthroline 2 mM, PPACK 210 μM, soybean 1 mg/mL, DL-thiorphan 2 mM, captopril 30 μM, DFP 10 mM, PMSF 1 mM, amastatin 100 μM, bestatin 2 mM, LC-ESI-MS, n = 3) does the source give for `O=C(O)CNC(=O)C(CS)Cc1ccccc1` (racemic) [DL-thiorphan] here?
A: Its value is 73%.

Q: What about the “percentage inhibition … liver” value ([2]; rat liver homogenate, inhibitor pre-incubated 10 min at 37°C, then exendin-4 10 μM for 60 min, NEM 10 mM, phenanthroline 2 mM, PPACK 210 μM, soybean 1 mg/mL, DL-thiorphan 2 mM, captopril 30 μM, DFP 10 mM, PMSF 1 mM, amastatin 100 μM, bestatin 2 mM, LC-ESI-MS, n = 3) of the same molecule?
A: The value was “no effect”.

Q: Which “percentage inhibition … kidney” value [1] does the source give for `NC(N)=NCCC[C@H](NC(=O)[C@@H]1CCCN1C(=O)[C@H](N)Cc1ccccc1)C(=O)CCl` [PPACK] here?
A: The value was 41%.

Q: And the “percentage inhibition … liver” value [2]?
A: Its value is “no effect”.

Q: With `CC(C)C[C@H](NC(=O)[C@@H](O)[C@H](N)Cc1ccccc1)C(=O)O` [bestatin] as the molecule, how does the “percentage inhibition … kidney” value [1] read?
A: Its value is 11%.

Q: And the “percentage inhibition … liver” value [2]?
A: The value was 48%.

Q: What does the source list for `C[C@H](CS)C(=O)N1CCC[C@H]1C(=O)O` [captopril]?
A: percentage inhibition of exendin-4 degradation, kidney [1]: not inhibited; percentage inhibition of exendin-4 degradation, liver [2]: not inhibited

Q: Which “percentage inhibition … kidney” value [1] does the source give for `CCN1C(=O)C=CC1=O` [NEM, N-ethylmaleimide] here?
A: Its value is “not inhibited”.

Q: What about the “percentage inhibition … liver” value [2] of the same molecule?
A: Its value is “not inhibited”.

Q: Which “percentage inhibition … kidney” value [1] does the source give for `CC(C)C[C@@H](N)[C@H](O)C(=O)N[C@H](C(=O)N[C@H](C(=O)N[C@@H](CC(=O)O)C(=O)O)C(C)C)C(C)C` [amastatin] here?
A: The value was 32%.

Q: And the “percentage inhibition … liver” value [2]?
A: The value was 13.2%.

B1: trypsin inhibitor (soybean): soybean trypsin inhibitor (protein, UniProt P01070 25-205, looked up)
Trypsin inhibitor A: DFVLDNEGNPLENGGTYYILSDITAFGGIRAAPTGNERCPLTVVQSRNELDKGIGTIISSPYRIRFIAEGHPLSLKFDSFAVIMLCVGIPTEWSVVEDLPEGPAVKIGENKDAMDGWFRLERVSDDEFNNYKLVFCPQQAEDDKCGDIGISIDHDDGTRRLVVSKNKPLVVQFQKLDKESL
Q: Which “percentage inhibition … kidney” value [1] does the source give for B1 here?
A: Its value is “no effect”.

Q: What about the “percentage inhibition … liver” value [2] of the same molecule?
A: The value was 20%.
